Experimental data taken from patent US12435061B2 (priority 2020, dated 2025).
Values after ≈ are worked out from the molar mass of the structure shown.

Experiments:
hTRPV3 [1] = target: T1, hTRPV3 (Homo sapiens (Human), UniProt Q8NET8); test: FLIPR Assay (calcium flux, HEK293 cells stably expressing TRPV3); assay type: cell-based
Experimental: In Tables 3 and 4, Phase 1 refers to Phase 1 current for human (h) TRPV3 or rat (r) TRPV3, and Phase 2 refers to Phase 2 current for human (h) TRPV3 or rat (r) TRPV3. The hTRPV3 and rTRPV3 assays were performed as described herein. hERG refers to the inhibition the human ERG (hERG) channel. NaV1.5, refers to the pore forming aL-subunit of the voltage-dependent cardiac Na(+) channel and is an integral membrane protein involved in the initiation and conduction of action potentials. hTRPV3 HAMA IC50 refers to the IC50 of TRPV3 cells stably expressed in TRex-293 cells. Solubility Ringer refers to the compounds' solubility in Ringer's solution. LM T1/2 refers to liver microsome half-lives in either rat or human liver microsomes. FLIPR IC50 refers to the IC50 of the test compounds against recombinant hTRPV3 cells.
The cells were treated with IBSS and 20 mM HEPES adjusted to pH 7.4 in the presence of the fluorescent calcium indicator e.g. Fluo-4AM (5 uM) and the plates were incubated at 37° C. and […] for approximately 1 hour and cooled to room temperature. […] Relative Fluorescence Units (RFU) were measured for each response for signal maximum minus minimum during approximately 90 seconds after addition.

hTRPV3 [2] = target: T1, hTRPV3; test: hTRPV3 HAMA IC50 assay (Hamamatsu FDSS6000 calcium flux, TRex-293 cells)
Experimental: IC50s were calculated using CBIS from ChemInnovation (San Diego).

[3] = Aqueous solubility assay in Normal Ringer Solution; conditions: Normal Ringer Solution
Experimental: Following vortex and incubation for a sufficient time (e.g. 40 minutes at room temperature), solutions were filtered, quenched with acetonitrile, and analyzed by Liquid Chromotography. Solubility Limits were determined by comparison to a standard curve.

[4] = Metabolic Stability assay, rat liver microsomes; assay type: in vitro ADME; conditions: 1 μM
Summary of the method: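 Test article at 1 μM starting concentration incubated with human or rat liver microsomes at 37 °C, with the reaction started by NADPH regeneration components. Aliquots were quenched in cold acetonitrile/MeOH/H2O at 0, 7, 15, 30 and 60 min and analysed by HPLC/MS/MS.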

hTRPV3 [5] = target: T1, hTRPV3; test: Whole-cell patch clamp, hTRPV3 Phase 1 / Phase 2 currents; assay type: cell-based; conditions: Phase 1 current
Summary of the method: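 Whole-cell recordings on induced TRPV3 cells replated on coverslips, held at −40 mV with 400 ms ramps from −120 to +100 mV every 5 s; currents read at −80 and +80 mV. Ringer's external solution; current activated by heating to ≥28 °C or 20 μM 2-APB.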

T1 sequence (Q8NET8 whole entry): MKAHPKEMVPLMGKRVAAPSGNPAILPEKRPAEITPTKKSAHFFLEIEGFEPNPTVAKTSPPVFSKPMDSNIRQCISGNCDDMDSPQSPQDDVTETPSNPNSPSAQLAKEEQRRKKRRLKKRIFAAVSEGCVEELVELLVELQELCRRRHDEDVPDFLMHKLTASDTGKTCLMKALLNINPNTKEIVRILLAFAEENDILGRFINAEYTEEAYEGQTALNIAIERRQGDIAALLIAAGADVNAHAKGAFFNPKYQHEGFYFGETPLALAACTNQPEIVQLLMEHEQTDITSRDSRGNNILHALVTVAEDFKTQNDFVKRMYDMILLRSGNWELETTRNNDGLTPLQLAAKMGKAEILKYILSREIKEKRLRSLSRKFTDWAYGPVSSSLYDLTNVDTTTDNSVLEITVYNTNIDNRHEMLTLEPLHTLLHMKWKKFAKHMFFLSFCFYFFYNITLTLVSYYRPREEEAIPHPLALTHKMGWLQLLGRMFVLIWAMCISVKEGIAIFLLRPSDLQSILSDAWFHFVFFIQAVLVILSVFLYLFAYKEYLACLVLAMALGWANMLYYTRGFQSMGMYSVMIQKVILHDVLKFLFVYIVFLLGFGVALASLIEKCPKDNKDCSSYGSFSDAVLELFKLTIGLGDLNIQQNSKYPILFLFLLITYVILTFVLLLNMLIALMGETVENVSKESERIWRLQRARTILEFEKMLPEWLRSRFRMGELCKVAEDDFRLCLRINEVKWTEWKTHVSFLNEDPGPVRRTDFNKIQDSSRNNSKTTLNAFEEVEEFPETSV

Row | Compound | IC50 (hTRPV3 [1]; read-out: FLIPR IC50) [µM] | other results
1 | COc1ccnc(C(=O)N2CCC(c3ccc(-c4ccccc4C4CC4)cc3CO)C2)c1 (stereo not drawn) [Compound 2-141] | 4.49 | –
2 | Cc1nnc(C(=O)N2CCC(c3ccc(-c4ccccc4C4CC4)cc3CO)C2)cc1O (stereo not drawn) [Compound 2-142] | > 10 | –
3 | Cc1nc(C(=O)N2CCC(c3ccc(-c4ccccc4C4CC4)cc3CO)C2)ccc1O (stereo not drawn) [Compound 2-143] | – | IC50 (hTRPV3 [1]; FLIPR IC50 (uM)): 0.86 µM; IC50 (hTRPV3 [2]; read-out: hTRPV3 HAMA IC50, 2-APB stimulated calcium flux): 10.3 nM; solubility at 40 min ([3]; saline or isotonic, kinetic from dmso stock): 0.0183 µM (≈ 7.84 ng/mL)
4 | Cc1nc(C(=O)N2CCC(c3ccc(-c4ccccc4C4CC4)cc3CO)C2)ccc1CO (stereo not drawn) [Compound 2-144] | 3.27 | –
5 | O=C(c1ncc(Cl)cn1)N1CCC(c2ccc(-c3ccccc3C3CC3)cc2CO)C1 (stereo not drawn) [Compound 2-159] | 5.18 | –
6 | O=C(c1csc(CO)n1)N1CCC(c2ccc(-c3ccccc3C3CC3)cc2CO)C1 (stereo not drawn) [Compound 2-160] | > 10 | –
7 | Cn1cnc(C(=O)N2CCC(c3ccc(-c4ccccc4C4CC4)cc3CO)C2)c1 (stereo not drawn) [Compound 2-161] | 9.52 | –
8 | O=C(c1cc2n(n1)CCC2)N1CCC(c2ccc(-c3ccccc3C3CC3)cc2CO)C1 (stereo not drawn) [Compound 2-162] | 5.19 | –
9 | Cn1ccc(C(=O)N2CCC(c3ccc(-c4ccccc4C4CC4)cc3CO)C2)n1 (stereo not drawn) [Compound 2-163] | > 10 | –
10 | Cn1ccnc1C(=O)N1CCC(c2ccc(-c3ccccc3C3CC3)cc2CO)C1 (stereo not drawn) [Compound 2-164] | > 10 | –
11 | CN1CCc2nc(C(=O)N3CCC(c4ccc(-c5ccccc5C5CC5)cc4CO)C3)sc2C1 (stereo not drawn) [Compound 2-165] | > 10 | –
12 | CCc1oc(C(=O)N2CCC(c3ccc(-c4ccccc4C4CC4)cc3CO)C2)nc1C (stereo not drawn) [Compound 2.145] | 4.43 | –
13 | Cc1coc(C(=O)N2CCC(c3ccc(-c4ccccc4C4CC4)cc3CO)C2)n1 (stereo not drawn) [Compound 2.146] | 5.95 | –
14 | Cc1ocnc1C(=O)N1CCC(c2ccc(-c3ccccc3C3CC3)cc2CO)C1 (stereo not drawn) [Compound 2.148] | 2.93 | –
15 | O=C(c1nccnc1O)N1CCC(c2ccc(-c3ccccc3C3CC3)cc2CO)C1 (stereo not drawn) [Compound 2.150] | > 10 | –
16 | COc1cncc(C(=O)N2CCC(c3ccc(-c4ccccc4C4CC4)cc3CO)C2)n1 (stereo not drawn) [Compound 2.151] | 0.78 | –
17 | O=C(c1cccc(CO)n1)N1CCC(c2ccc(-c3ccccc3C3CC3)cc2CO)C1 (stereo not drawn) [Compound 2.152] | 4.56 | –
18 | O=C(c1cc(CO)ccn1)N1CCC(c2ccc(-c3ccccc3C3CC3)cc2CO)C1 (stereo not drawn) [Compound 2.154] | 4.21 | –
19 | COCc1ccnc(C(=O)N2CCC(c3ccc(-c4ccccc4C4CC4)cc3CO)C2)c1 (stereo not drawn) [Compound 2.155] | 9.25 | –
20 | COc1cnc(C(=O)N2CCC(c3ccc(-c4ccccc4C4CC4)cc3CO)C2)nc1 (stereo not drawn) [Compound 2.158] | 6.12 | –
21 | (S)-(2′-chloro-4-(3-(5-(trifluoromethyl)pyridin-2-yloxy)pyrrolidin-1-yl)biphenyl-3-yl)methanol [Compound 1-132] | – | LM T1/2 (min) (rat) [4]: 54.1 (rat) min; hTRPV3 HAMA IC50 (nM) (5 min) (hTRPV3 [2]; 5 min): no fit (5 min); IC50 (hTRPV3 [5]; inward, whole-cell patch clamp, read-out: hTRPV3 Patch P1 Inwd): 10 to 100 nM; IC50 (hTRPV3 [5]; read-out: hTRPV3 (nM) (Phase 1)): 32 nM; Solubility Ringer (nM) ([3]; room temperature): BLQ
